Earlier results in US20060135507A1, “Therapeutic agent for overactive bladder involved in aging” (priority 2004, published 2006).

Key:
[1] = system: rat with overactive bladder caused by cerebrovascular disease
[2] = system: human with overactive bladder caused by cerebrovascular disease

Q: Which micturition reflex [1] does the source give for `COc1ccc(C(=O)N2CCCC2=O)cc1` [Aniracetam] here?
A: The micturition reflex was “suppression of micturition reflex is observed”.

Q: And the micturition reflex [2]?
A: Its micturition reflex is “suppression of micturition reflex is observed”.
